In ChEMBL document CHEMBL1149368, “1-Aminomethylbenzocycloalkanes: conformationally restricted hallucinogenic phenethylamine analogues as functionally selective 5-HT2A receptor agonists” (J Med Chem, 2006):

Assays:
[1] = biological target: T1, 5-hydroxytryptamine receptor 2A (Rattus norvegicus, UniProt P14842); assay: Activity at rat 5HT2A receptor expressed in NIH3T3 cells assessed as stimulation of phospholipase C-mediated IP production; assay type: functional, cell-based
[2] = biological target: 5-hydroxytryptamine receptor 2A (Homo sapiens, UniProt P28223)
Description: Displacement of (+/-)-[125I]DOI from human cloned 5HT2A receptor

[3] = biological target: T1, 5-hydroxytryptamine receptor 2A
Description: Displacement of (+/-)-[125I]DOI from rat cloned 5HT2A receptor

Chain of 5-hydroxytryptamine receptor 2A (Homo sapiens, UniProt P28223) (P28223 whole entry): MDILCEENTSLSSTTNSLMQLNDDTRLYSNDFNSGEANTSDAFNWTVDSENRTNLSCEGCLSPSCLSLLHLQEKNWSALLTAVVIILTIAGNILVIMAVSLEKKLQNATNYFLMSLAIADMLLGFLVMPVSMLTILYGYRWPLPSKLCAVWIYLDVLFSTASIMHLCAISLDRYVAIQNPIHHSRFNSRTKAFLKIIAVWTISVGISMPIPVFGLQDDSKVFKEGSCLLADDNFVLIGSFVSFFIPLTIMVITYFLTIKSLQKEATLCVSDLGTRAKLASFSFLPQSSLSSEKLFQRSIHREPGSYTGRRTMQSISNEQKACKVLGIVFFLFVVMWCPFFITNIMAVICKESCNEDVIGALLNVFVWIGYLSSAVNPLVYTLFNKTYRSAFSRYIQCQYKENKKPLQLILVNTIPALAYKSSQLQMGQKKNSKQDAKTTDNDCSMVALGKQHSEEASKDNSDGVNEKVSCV
T1 sequence (P14842 whole entry): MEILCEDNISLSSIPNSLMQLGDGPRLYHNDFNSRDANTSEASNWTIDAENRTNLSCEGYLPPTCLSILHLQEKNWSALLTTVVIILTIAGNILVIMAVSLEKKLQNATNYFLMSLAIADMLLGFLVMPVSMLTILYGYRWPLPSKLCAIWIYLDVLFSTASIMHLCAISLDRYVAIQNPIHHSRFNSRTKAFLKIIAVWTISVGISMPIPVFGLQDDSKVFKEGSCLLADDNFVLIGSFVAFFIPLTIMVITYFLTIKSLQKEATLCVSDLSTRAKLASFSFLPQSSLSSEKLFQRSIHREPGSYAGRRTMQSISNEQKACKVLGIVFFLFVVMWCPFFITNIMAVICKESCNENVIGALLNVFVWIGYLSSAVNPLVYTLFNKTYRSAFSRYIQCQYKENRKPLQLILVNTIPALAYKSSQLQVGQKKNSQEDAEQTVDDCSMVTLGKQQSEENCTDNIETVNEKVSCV

For `COc1cc(CCN)c(OC)cc1Br`, the EC50 [1] was 27 nM, the Ki [2] was 0.66 nM and the Ki [3] was 0.88 nM.
`COc1cc(Br)c2c3c1[C@@H](CN)CCC[C@@H]3CO2` (racemic) was tested, and the Ki [2] was 170 nM and the Ki [3] was 74 nM.
With `COc1cc(Br)c2c3c1[C@H](CN)CCC[C@@H]3CO2` (racemic) the Ki [2] was 200 nM and the Ki [3] was 170 nM.
Compound `COc1cc(Br)c(OC)c2c1C(CN)CC2` (racemic) has a Ki [2] of 53 nM and a Ki [3] of 47 nM.
